Measured values from the supplement of paper PMC11061612.

What was measured:
[1] = tested on: RPMI-8402 (T-Lymphoblastic Leukemia); assay: combination Emax (second highest fraction inhibited in the dose matrix, 72 h); higher = more inhibition; extreme values may be limits of the assay
Outline: (§1)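 Bliss excess equals the observed combination effect minus the expected value EA + EB − EA·EB, where EA and EB are the effects of each agent alone. Combination Emax is the second-highest inhibition within the matrix. Inhibition was scaled from CellTiter-Glo 2.0 luminescence, with 0 set by vehicle wells and 1 by blank wells, after 72 hours of two-drug dosing of cells plated in 1536-well plates.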

[2] = tested on: COR-L105 (Lung Adenocarcinoma); assay: as above
Outline: as §1

[3] = tested on: NCI-H1435 (Non-Small Cell Lung Carcinoma); assay: as above
Outline: as §1

[4] = tested on: BC-1 (B-Cell Non-Hodgkin's Lymphoma); assay: as above
Outline: as §1

[5] = tested on: CAL-85-1 (Breast Carcinoma); assay: as above
Outline: as §1

[6] = tested on: OVKATE (Ovarian Carcinoma); assay: as above
Outline: as §1

[7] = tested on: KNS-62 (Squamous Cell Lung Carcinoma); assay: as above
Outline: as §1

[8] = tested on: SBC-3 (Small Cell Lung Carcinoma); assay: as above
Outline: as §1

RVH-421 (Melanoma) [9] = assay: as above
Outline: as §1

[10] = tested on: NCI-H1975 (Lung Adenocarcinoma); assay: as above
Outline: as §1

[11] = tested on: SCC90 (Head and Neck Carcinoma); assay: as above
Outline: as §1

[12] = tested on: HT-3 (Cervical Carcinoma); assay: as above
Outline: as §1

[13] = tested on: SNU-1 (Gastric Carcinoma); assay: as above
Outline: as §1

[14] = tested on: OCI-M1 (Acute Myeloid Leukemia); assay: as above
Outline: as §1

[15] = tested on: SBC-5 (Small Cell Lung Carcinoma); assay: as above
Outline: as §1

DK-MG (Glioblastoma) = assay: as above
Outline: as §1

[16] = tested on: NCI-H2170 (Squamous Cell Lung Carcinoma); assay: as above
Outline: as §1

RVH-421 (Melanoma) [17] = assay: Bliss excess, mean over the matrix (fraction); higher = more synergy
Outline: as §1

SMILES | combination Emax [1] | combination Emax [2] | combination Emax [3] | combination Emax [4] | combination Emax [5] | combination Emax [6] | combination Emax [7] | combination Emax [8] | combination Emax (RVH-421 (Melanoma) [9]) | combination Emax [10] | combination Emax [11] | combination Emax [12] | combination Emax [13] | combination Emax [14] | combination Emax [15] | combination Emax (DK-MG (Glioblastoma)) | combination Emax [16] | Bliss excess (RVH-421 (Melanoma) [17])
CN(CCO)CC[C@H](CSc1ccccc1)Nc1ccc(S(=O)(=O)NC(=O)c2ccc(N3CCC([C@@H](O)c4ccccc4-c4ccc(Cl)cc4)CC3)cc2)cc1S(=O)(=O)C(F)(F)F [AZD4320] + CC(=O)O[C@H]1C(=O)[C@@]2(C)[C@H]([C@H](OC(=O)c3ccccc3)[C@]3(O)C[C@H](OC(=O)[C@H](O)[C@@H](NC(=O)c4ccccc4)c4ccccc4)C(C)=C1C3(C)C)[C@]1(OC(C)=O)CO[C@@H]1C[C@@H]2O [Paclitaxel] (first compound max 1 µM, 7x7, partner max 3 µM) | 1 | 0.695 | 0.929 | 1 | 0.884 | 0.629 | 0.957 | 1 | – | – | – | – | – | – | – | – | – | –
CN(CCO)CC[C@H](CSc1ccccc1)Nc1ccc(S(=O)(=O)NC(=O)c2ccc(N3CCC([C@@H](O)c4ccccc4-c4ccc(Cl)cc4)CC3)cc2)cc1S(=O)(=O)C(F)(F)F [AZD4320] + CCN(CCO)CCCOc1ccc2c(Nc3cc(CC(=O)Nc4cccc(F)c4)[nH]n3)ncnc2c1 [AZD2811] (first compound max 1 µM, 7x7, partner max 1 µM) | 0.999 | 0.215 | 0.699 | 0.662 | 0.397 | 0.347 | 0.207 | 0.523 | 0.196 | 0.411 | 0.715 | 0.177 | 0.541 | 0.988 | 0.3 | 0.255 | 0.627 | -0.0297
CN(CCO)CC[C@H](CSc1ccccc1)Nc1ccc(S(=O)(=O)NC(=O)c2ccc(N3CCC([C@@H](O)c4ccccc4-c4ccc(Cl)cc4)CC3)cc2)cc1S(=O)(=O)C(F)(F)F [AZD4320] + Cc1cc2ncnn2cc1Nc1ncc2c(n1)n(C1CCOCC1)c(=O)n2C [AZD7648] (first compound max 1 µM, 7x7, partner max 10 µM) | 0.929 | 0.253 | 0.752 | 0.509 | 0.337 | 0.303 | 0.108 | 0.276 | 0.211 | 0.35 | 0.448 | 0.0567 | 0.463 | 0.981 | 0.166 | 0.261 | 0.674 | -0.0345
CN(CCO)CC[C@H](CSc1ccccc1)Nc1ccc(S(=O)(=O)NC(=O)c2ccc(N3CCC([C@@H](O)c4ccccc4-c4ccc(Cl)cc4)CC3)cc2)cc1S(=O)(=O)C(F)(F)F [AZD4320] + Nc1ccn([C@@H]2O[C@H](CO)[C@@H](O)C2(F)F)c(=O)n1 [Gemcitabine] (first compound max 1 µM, 7x7, partner max 0.3 µM) | 1 | 0.514 | 0.823 | 0.974 | 0.702 | 0.246 | 0.595 | 1 | – | – | – | – | – | – | – | – | – | –
Cc1cc2ncnn2cc1Nc1ncc2c(n1)n(C1CCOCC1)c(=O)n2C [AZD7648] + C=CCn1c(=O)c2cnc(Nc3ccc(N4CCN(C)CC4)cc3)nc2n1-c1cccc(C(C)(C)O)n1 [AZD1775] (first compound max 10 µM, partner max 1 µM) | 1 | 0.492 | 0.355 | 0.997 | 0.452 | 0.422 | 0.314 | 0.576 | 0.289 | 0.421 | 0.905 | 0.401 | 0.628 | 0.87 | 0.359 | 0.43 | 0.741 | 0.0039
Cc1cc2ncnn2cc1Nc1ncc2c(n1)n(C1CCOCC1)c(=O)n2C [AZD7648] + CCN(CCO)CCCOc1ccc2c(Nc3cc(CC(=O)Nc4cccc(F)c4)[nH]n3)ncnc2c1 [AZD2811] (first compound max 10 µM, 7x7, partner max 1 µM) | 0.886 | 0.31 | 0.288 | 0.871 | 0.31 | 0.27 | 0.326 | 0.564 | 0.299 | 0.384 | 0.452 | 0.231 | 0.239 | 0.237 | 0.39 | 0.273 | 0.696 | -0.0193
Cc1cc2ncnn2cc1Nc1ncc2c(n1)n(C1CCOCC1)c(=O)n2C [AZD7648] + CN(C)CCCOc1ccc(-c2ccc3ncc4c(c3c2)n(C2CCOCC2)c(=O)n4C)cn1 [AZD0156] (first compound max 10 µM, 7x7, partner max 1 µM) | 0.382 | 0.339 | 0.226 | 0.634 | 0.371 | 0.35 | 0.235 | 0.482 | 0.274 | 0.398 | 0.353 | 0.143 | 0.193 | 0.173 | 0.224 | 0.27 | 0.335 | -0.0099
Cc1nc(Nc2ncc(C(=O)Nc3c(C)cccc3Cl)s2)cc(N2CCN(CCO)CC2)n1 [Dasatinib] + CC(=O)Nc1cccc(-n2c(=O)n(C3CC3)c(=O)c3c(Nc4ccc(I)cc4F)n(C)c(=O)c(C)c32)c1 [Trametinib] (first compound max 2 µM, 7x7, partner max 1 µM) | 0.307 | 0.806 | 0.42 | 0.418 | 0.853 | 0.484 | 0.564 | 0.528 | – | 0.662 | 0.846 | 0.157 | 0.475 | 0.884 | 0.409 | 0.895 | 0.537 | –
COc1cc2ncnc(Nc3ccc(F)c(Cl)c3)c2cc1OCCCN1CCOCC1 [Gefitinib] + CC(C)n1c(=O)n(C)c2cnc3cc(F)c(-c4ccc(OCCCN5CCCCC5)nc4)cc3c21 [AZD1390] (first compound max 10 µM, 7x7, partner max 0.3 µM) | 0.56 | 0.619 | 0.114 | 0.601 | 0.466 | 0.155 | 0.0888 | 0.107 | – | 0.419 | 0.699 | 0.0187 | 0.239 | 0.0417 | 0.0706 | 0.248 | 0.784 | –
N#Cc1cnc(Nc2cc(NC[C@H]3CNCCO3)c(C(F)(F)F)cn2)cn1 [SRA737] + C=CCn1c(=O)c2cnc(Nc3ccc(N4CCN(C)CC4)cc3)nc2n1-c1cccc(C(C)(C)O)n1 [AZD1775] (first compound max 10 µM, partner max 1 µM) | 1 | 0.383 | 0.267 | 0.988 | 0.476 | 0.222 | 0.53 | 0.86 | – | – | – | – | – | – | – | – | – | –
N#Cc1cnc(Nc2cc(NC[C@H]3CNCCO3)c(C(F)(F)F)cn2)cn1 [SRA737] + Nc1ccn([C@@H]2O[C@H](CO)[C@@H](O)C2(F)F)c(=O)n1 [Gemcitabine] (first compound max 10 µM, 7x7, partner max 0.3 µM) | 1 | 0.485 | 0.411 | 0.979 | 0.743 | 0.27 | 0.608 | 0.97 | – | – | – | – | – | – | – | – | – | –
N#Cc1cnc(Nc2cc(NC[C@H]3CNCCO3)c(C(F)(F)F)cn2)cn1 [SRA737] + O=c1[nH]cc(F)c(=O)[nH]1 [5-Fluorouracil] (first compound max 10 µM, 7x7, partner max 20 µM) | 1 | 0.234 | 0.164 | 0.739 | 0.555 | 0.147 | 0.382 | 0.66 | – | – | – | – | – | – | – | – | – | –
C[C@@H](c1ccc2nccn2c1)n1nnc2ncc(-c3cnn(C)c3)nc21 [Savolitinib] + CC1(C)CCC(CN2CCN(c3ccc(C(=O)NS(=O)(=O)c4ccc(NCC5CCOCC5)c([N+](=O)[O-])c4)c(Oc4cnc5[nH]ccc5c4)c3)CC2)=C(c2ccc(Cl)cc2)C1 [Venetoclax] (first compound max 1 µM, 7x7, partner max 1 µM) | 0.183 | 0.186 | 0.177 | 0.209 | 0.146 | 0.155 | 0.0888 | 0.118 | – | 0.126 | 0.381 | 0.137 | 0.188 | 0.102 | 0.33 | 0.352 | 0.162 | –
C[C@@H](c1ccc2nccn2c1)n1nnc2ncc(-c3cnn(C)c3)nc21 [Savolitinib] + CN(CC[C@H](CSC1=CC=CC=C1)NC2=C(C=C(C=C2)S(=O)(=O)NC(=O)C3=CC=C(C=C3)N4CCC(CC4)[C@H](C5=CC=CC=C5C6=CC=C(C=C6)Cl)O)S(=O)(=O)C(F)(F)F)CCO [AZD4320] (first compound max 1 µM, 7x7, partner max 1 µM) | – | – | – | – | – | – | – | – | – | 0.178 | 0.502 | 0.15 | 0.417 | 0.993 | 0.326 | 0.37 | 0.657 | –
C[C@@H](c1ccc2nccn2c1)n1nnc2ncc(-c3cnn(C)c3)nc21 [Savolitinib] + Cc1c2c(nn1C)CSCc1cc(n(C)n1)CSc1cc(c3ccccc3c1)OCCCc1c(C(=O)O)n(C)c3c-2c(Cl)ccc13 [AZD5991] (first compound max 1 µM, 7x7, partner max 1 µM) | 0.502 | 0.165 | 0.122 | 1 | 0.0993 | 0.144 | 0.141 | 0.135 | – | 0.146 | 0.454 | 0.207 | 0.454 | 0.186 | 0.538 | 0.417 | 0.211 | –
